This note sets out measurements from patent US20250154144A1 (CHILDREN'S HOSPITAL MEDICAL CENTER, priority 2021, published 2025).

Substitutions are numbered along the chain they refer to.

Experiment [1] concerns MOLM14 F691L cells. Nature of the experiment: cells. The format is cell-based. Conditions: Homo sapiens, MOLM-14, 48 h, 48 hours, Cell Titer Glo; read-out: MOLM14 F691L IC50. For orientation: Cellular ATP, detected with luciferase, serves as a proxy for viable cell number.
Experiment [2] deals with T1, FLT3 ITD (Homo sapiens, UniProt P36888).
T1 sequence (P36888 1-993): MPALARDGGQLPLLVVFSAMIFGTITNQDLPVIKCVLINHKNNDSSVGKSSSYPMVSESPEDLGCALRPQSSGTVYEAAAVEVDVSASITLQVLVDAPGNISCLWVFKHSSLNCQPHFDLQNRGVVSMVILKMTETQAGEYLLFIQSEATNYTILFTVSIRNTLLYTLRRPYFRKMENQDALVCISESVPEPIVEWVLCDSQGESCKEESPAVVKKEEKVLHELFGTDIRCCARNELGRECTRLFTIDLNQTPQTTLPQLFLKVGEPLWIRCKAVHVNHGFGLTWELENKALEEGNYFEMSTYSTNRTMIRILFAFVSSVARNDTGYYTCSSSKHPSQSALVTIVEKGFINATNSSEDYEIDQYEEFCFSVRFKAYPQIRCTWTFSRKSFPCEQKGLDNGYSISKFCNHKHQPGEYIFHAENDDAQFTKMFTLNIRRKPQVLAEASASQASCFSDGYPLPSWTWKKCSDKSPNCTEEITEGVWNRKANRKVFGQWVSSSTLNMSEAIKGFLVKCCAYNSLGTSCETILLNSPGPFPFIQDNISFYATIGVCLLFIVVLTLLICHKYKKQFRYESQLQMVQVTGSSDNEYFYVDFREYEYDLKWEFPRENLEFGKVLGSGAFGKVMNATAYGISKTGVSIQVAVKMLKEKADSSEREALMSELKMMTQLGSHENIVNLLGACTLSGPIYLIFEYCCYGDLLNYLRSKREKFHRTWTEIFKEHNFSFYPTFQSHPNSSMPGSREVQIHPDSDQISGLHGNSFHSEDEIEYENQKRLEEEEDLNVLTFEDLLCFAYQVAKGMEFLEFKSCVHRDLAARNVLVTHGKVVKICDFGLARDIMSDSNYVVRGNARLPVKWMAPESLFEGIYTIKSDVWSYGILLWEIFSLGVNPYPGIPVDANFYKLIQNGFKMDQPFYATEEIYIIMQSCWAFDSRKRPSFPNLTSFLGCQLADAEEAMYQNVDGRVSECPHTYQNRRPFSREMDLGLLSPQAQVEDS
Nature of the experiment: DiscoverX KINOMEscan competition binding, FLT3 ITD. Conditions: read-out: FLT3 ITD Kd.

In experiment [3] the target is T2, FLT3 ITD, D835V (Homo sapiens, UniProt P36888, D835V, form not given).
T2 sequence (P36888 1-993 D835V): T1 sequence (P36888 1-993) with D835V
The experiment in a line: DiscoverX KINOMEscan competition binding, FLT3 ITD, D835V. Conditions: read-out: FLT3 ITD, D835V Kd.

As to `COc1cc2ncc(-c3ccnc(N[C@@H]4CCCNC4)n3)n2nc1C1CC1` [Compound 50, (R)-4-(6-cyclopropyl-7-methoxyimidazo[1,2-b]pyridazin-3-yl)-N-(piperidin-3-yl)pyrimidin-2-amine], the IC50 in experiment [1] is 172 nM.
`COc1cc2ncc(-c3cncc(N[C@H]4CNCC[C@@H]4F)n3)n2nc1C1CC1` [Compound 24, 6-(6-cyclopropyl-7-methoxyimidazo[1,2-b]pyridazin-3-yl)-N-((3S,4S)-4-fluoropiperidin-3-yl)pyrazin-2-amine]: the Kd in experiment [2] was 0.97 nM; in experiment [3] it was 0.045 nM.
In the same order, the values of `COc1cc2ncc(-c3cncc(N[C@H]4CNC[C@@H]4F)n3)n2nc1C1CC1` [Compound 22, 6-(6-cyclopropyl-7-methoxyimidazo[1,2-b]pyridazin-3-yl)-N-((3S,4S)-4-fluoropyrrolidin-3-yl)pyrazin-2-amine] are 0.67 nM and 0.058 nM.
Take `COc1cc2ncc(-c3ccnc(N[C@H]4CNC[C@@H]4F)n3)n2nc1C1CC1` [Compound 49, 4-(6-cyclopropyl-7-methoxyimidazo[1,2-b]pyridazin-3-yl)-N-((3S,4S)-4-fluoropyrrolidin-3-yl)pyrimidin-2-amine]: the dissociation constant (Kd) turned out to be 0.59 nM in experiment [2] and 0.04 nM in experiment [3]. For the same molecule, the IC50 in experiment [1] was 307 nM.
In the same order, the values of `CC(O)(c1cn2c(-c3ccnc(N[C@H]4CNCC[C@@H]4F)n3)cnc2cn1)C(F)(F)F` (single isomer, unassigned) [Compound 72] are 0.62 nM, 0.08 nM and 433 nM.
`F[C@H]1CCNC[C@@H]1Nc1cncc(-c2cnc3cc(OC4CC4)ccn23)n1` [Compound 12, 6-(7-cyclopropoxyimidazo[1,2-a]pyridin-3-yl)-N-((3S,4S)-4-fluoropiperidin-3-yl)pyrazin-2-amine]: the values for the Kd in experiment [2] and in experiment [3] were 0.87 nM and 0.035 nM, respectively. Further, the IC50 in experiment [1] worked out at 86 nM.
Consider `COc1cc2ncc(-c3ccnc(N[C@@H]4CCCNC4)n3)n2cc1C(C)(C)O` [Compound 44, (R)-2-(7-methoxy-3-(2-(piperidin-3-ylamino)pyrimidin-4-yl)imidazo[1,2-a]pyridin-6-yl)propan-2-ol], for which the Kd in experiment [2] was found to be 0.42 nM; in experiment [3], 0.009 nM. Further, the IC50 in experiment [1] was 86 nM.
As for `COc1cc2ncc(-c3ccnc(N[C@H]4CNCC[C@@H]4F)n3)n2nc1C1CC1` [Compound 51, 4-(6-cyclopropyl-7-methoxyimidazo[1,2-b]pyridazin-3-yl)-N-((3S,4S)-4-fluoropiperidin-3-yl)pyrimidin-2-amine], the equilibrium dissociation constant (Kd) was 2 nM in experiment [2] and 0.07 nM in experiment [3]. Moreover, the IC50 in experiment [1] was found to be 122 nM.

Usually IC50 stands for the point on the concentration scale where inhibition reaches its midpoint. Broadly, the Kd is the equilibrium constant for the complex coming apart.
